Source: the NIST ThermoML archive (doi:10.1021/je100851w)
Numbers after ± are expanded uncertainties.

Assay: xn = mol fraction of the nth substance listed
Details: Vibrating tube method

S [hydrogen sulfide] + CCC
Details	mass density [kg/m3]
263.11 K, 8 kPa, Gas, x1 = 0.2227	0.1
263.11 K, 159 kPa, Gas, x1 = 0.2227	3.1 ± 0.1
263.11 K, 298 kPa, Gas, x1 = 0.2227	6.1 ± 0.1
263.11 K, 438 kPa, Gas, x1 = 0.2227	9.1 ± 0.1
263.11 K, 707 kPa, Liquid, x1 = 0.2227	571.2 ± 0.3
263.11 K, 2357 kPa, Liquid, x1 = 0.2227	574.3 ± 0.3
263.11 K, 4057 kPa, Liquid, x1 = 0.2227	577.3 ± 0.3
263.11 K, 5814 kPa, Liquid, x1 = 0.2227	580.3 ± 0.4
263.11 K, 7697 kPa, Liquid, x1 = 0.2227	583.3 ± 0.4
263.11 K, 9735 kPa, Liquid, x1 = 0.2227	586.4 ± 0.5
263.11 K, 11879 kPa, Liquid, x1 = 0.2227	589.5 ± 0.5
263.11 K, 14087 kPa, Liquid, x1 = 0.2227	592.6 ± 0.5
263.11 K, 16300 kPa, Liquid, x1 = 0.2227	595.6 ± 0.6
263.11 K, 18708 kPa, Liquid, x1 = 0.2227	598.6 ± 0.6
263.11 K, 21118 kPa, Liquid, x1 = 0.2227	601.6 ± 0.7
263.11 K, 23736 kPa, Liquid, x1 = 0.2227	604.6 ± 0.7
263.11 K, 26466 kPa, Liquid, x1 = 0.2227	607.7 ± 0.8
263.11 K, 29282 kPa, Liquid, x1 = 0.2227	610.8 ± 0.8
263.11 K, 32290 kPa, Liquid, x1 = 0.2227	613.9 ± 0.9
263.11 K, 35311 kPa, Liquid, x1 = 0.2227	616.9 ± 0.9
263.11 K, 38486 kPa, Liquid, x1 = 0.2227	620 ± 1
263.11 K, 41881 kPa, Liquid, x1 = 0.2227	623.1 ± 1
268.09 K, 9 kPa, Gas, x1 = 0.2691	0.2
268.09 K, 180 kPa, Gas, x1 = 0.2691	3.5 ± 0.1
268.09 K, 335 kPa, Gas, x1 = 0.2691	6.7 ± 0.1
268.09 K, 476 kPa, Gas, x1 = 0.2691	9.7 ± 0.1
268.09 K, 818 kPa, Liquid, x1 = 0.2691	570 ± 0.3
268.09 K, 2369 kPa, Liquid, x1 = 0.2691	573.1 ± 0.3
268.09 K, 3999 kPa, Liquid, x1 = 0.2691	576.3 ± 0.3
268.09 K, 5608 kPa, Liquid, x1 = 0.2691	579.3 ± 0.4
268.09 K, 7451 kPa, Liquid, x1 = 0.2691	582.5 ± 0.4
268.09 K, 9258 kPa, Liquid, x1 = 0.2691	585.5 ± 0.4
268.09 K, 11262 kPa, Liquid, x1 = 0.2691	588.7 ± 0.5
268.09 K, 13236 kPa, Liquid, x1 = 0.2691	591.8 ± 0.5
268.09 K, 15455 kPa, Liquid, x1 = 0.2691	595 ± 0.6
268.09 K, 17739 kPa, Liquid, x1 = 0.2691	598.2 ± 0.6
268.09 K, 20006 kPa, Liquid, x1 = 0.2691	601.2 ± 0.6
268.09 K, 22487 kPa, Liquid, x1 = 0.2691	604.4 ± 0.7
268.09 K, 24903 kPa, Liquid, x1 = 0.2691	607.4 ± 0.7
268.09 K, 27518 kPa, Liquid, x1 = 0.2691	610.5 ± 0.8
268.09 K, 30199 kPa, Liquid, x1 = 0.2691	613.6 ± 0.8
268.09 K, 33045 kPa, Liquid, x1 = 0.2691	616.7 ± 0.9
268.09 K, 36027 kPa, Liquid, x1 = 0.2691	619.8 ± 0.9
268.09 K, 39139 kPa, Liquid, x1 = 0.2691	622.9 ± 1
293.28 K, 14 kPa, Gas, x1 = 0.2227	0.2
293.28 K, 186 kPa, Gas, x1 = 0.2227	3.3 ± 0.1
293.28 K, 350 kPa, Gas, x1 = 0.2227	6.3 ± 0.1
293.28 K, 509 kPa, Gas, x1 = 0.2227	9.4 ± 0.1
293.28 K, 665 kPa, Gas, x1 = 0.2227	12.6 ± 0.1
293.28 K, 804 kPa, Gas, x1 = 0.2227	15.6 ± 0.1
293.28 K, 932 kPa, Gas, x1 = 0.2227	18.7 ± 0.1
293.28 K, 1050 kPa, Gas, x1 = 0.2227	21.9 ± 0.1
293.28 K, 3770 kPa, Liquid, x1 = 0.2227	518.4 ± 0.4
293.28 K, 4686 kPa, Liquid, x1 = 0.2227	521.6 ± 0.4
293.28 K, 5576 kPa, Liquid, x1 = 0.2227	524.8 ± 0.4
293.28 K, 6556 kPa, Liquid, x1 = 0.2227	527.8 ± 0.4
293.28 K, 7610 kPa, Liquid, x1 = 0.2227	530.9 ± 0.5
293.28 K, 8755 kPa, Liquid, x1 = 0.2227	534.1 ± 0.5
293.28 K, 9941 kPa, Liquid, x1 = 0.2227	537.3 ± 0.5
293.28 K, 11195 kPa, Liquid, x1 = 0.2227	540.5 ± 0.5
293.28 K, 12466 kPa, Liquid, x1 = 0.2227	543.5 ± 0.6
293.28 K, 13825 kPa, Liquid, x1 = 0.2227	546.6 ± 0.6
293.28 K, 15156 kPa, Liquid, x1 = 0.2227	549.6 ± 0.6
293.28 K, 16605 kPa, Liquid, x1 = 0.2227	552.6 ± 0.6
293.28 K, 18128 kPa, Liquid, x1 = 0.2227	555.6 ± 0.7
293.28 K, 19790 kPa, Liquid, x1 = 0.2227	558.8 ± 0.7
293.28 K, 21473 kPa, Liquid, x1 = 0.2227	561.9 ± 0.7
293.28 K, 23224 kPa, Liquid, x1 = 0.2227	564.9 ± 0.8
293.28 K, 25127 kPa, Liquid, x1 = 0.2227	568.1 ± 0.8
293.28 K, 27137 kPa, Liquid, x1 = 0.2227	571.3 ± 0.8
293.28 K, 29216 kPa, Liquid, x1 = 0.2227	574.5 ± 0.9
293.28 K, 31365 kPa, Liquid, x1 = 0.2227	577.6 ± 0.9
293.28 K, 33453 kPa, Liquid, x1 = 0.2227	580.6 ± 1
293.28 K, 35831 kPa, Liquid, x1 = 0.2227	583.8 ± 1
313.12 K, 202 kPa, Gas, x1 = 0.2691	3.3 ± 0.1
313.12 K, 382 kPa, Gas, x1 = 0.2691	6.4 ± 0.1
313.12 K, 558 kPa, Gas, x1 = 0.2691	9.5 ± 0.1
313.12 K, 722 kPa, Gas, x1 = 0.2691	12.6 ± 0.1
313.12 K, 878 kPa, Gas, x1 = 0.2691	15.7 ± 0.1
313.12 K, 1040 kPa, Gas, x1 = 0.2691	19 ± 0.1
313.12 K, 1178 kPa, Gas, x1 = 0.2691	22 ± 0.1
313.12 K, 1322 kPa, Gas, x1 = 0.2691	25.3 ± 0.1
313.12 K, 1455 kPa, Gas, x1 = 0.2691	28.5 ± 0.1
313.12 K, 1580 kPa, Gas, x1 = 0.2691	31.7 ± 0.1
313.12 K, 1693 kPa, Gas, x1 = 0.2691	34.9 ± 0.1
313.12 K, 1773 kPa, Gas, x1 = 0.2691	37.9 ± 0.1
313.12 K, 2189 kPa, Liquid, x1 = 0.2691	491.5 ± 0.3
313.12 K, 2787 kPa, Liquid, x1 = 0.2691	494.6 ± 0.4
313.12 K, 3465 kPa, Liquid, x1 = 0.2691	498 ± 0.4
313.12 K, 4173 kPa, Liquid, x1 = 0.2691	501.2 ± 0.4
313.12 K, 4917 kPa, Liquid, x1 = 0.2691	504.4 ± 0.4
313.12 K, 5710 kPa, Liquid, x1 = 0.2691	507.6 ± 0.4
313.12 K, 6516 kPa, Liquid, x1 = 0.2691	510.6 ± 0.5
313.12 K, 7434 kPa, Liquid, x1 = 0.2691	513.9 ± 0.5
313.12 K, 8423 kPa, Liquid, x1 = 0.2691	517.3 ± 0.5
313.12 K, 9421 kPa, Liquid, x1 = 0.2691	520.5 ± 0.5
313.12 K, 10495 kPa, Liquid, x1 = 0.2691	523.7 ± 0.5
313.12 K, 11669 kPa, Liquid, x1 = 0.2691	527.1 ± 0.6
313.12 K, 12933 kPa, Liquid, x1 = 0.2691	530.5 ± 0.6
313.12 K, 14205 kPa, Liquid, x1 = 0.2691	533.7 ± 0.6
313.12 K, 15491 kPa, Liquid, x1 = 0.2691	536.9 ± 0.6
313.12 K, 16847 kPa, Liquid, x1 = 0.2691	540 ± 0.7
313.12 K, 18303 kPa, Liquid, x1 = 0.2691	543.3 ± 0.7
313.12 K, 19787 kPa, Liquid, x1 = 0.2691	546.4 ± 0.7
313.12 K, 21354 kPa, Liquid, x1 = 0.2691	549.6 ± 0.8
313.12 K, 22903 kPa, Liquid, x1 = 0.2691	552.6 ± 0.8
313.12 K, 24556 kPa, Liquid, x1 = 0.2691	555.7 ± 0.8
313.12 K, 26292 kPa, Liquid, x1 = 0.2691	558.8 ± 0.9
313.12 K, 28082 kPa, Liquid, x1 = 0.2691	561.8 ± 0.9
313.12 K, 29973 kPa, Liquid, x1 = 0.2691	564.9 ± 0.9
313.12 K, 32005 kPa, Liquid, x1 = 0.2691	568.1 ± 1
313.12 K, 34062 kPa, Liquid, x1 = 0.2691	571.2 ± 1
313.12 K, 36163 kPa, Liquid, x1 = 0.2691	574.3 ± 1
313.12 K, 38383 kPa, Liquid, x1 = 0.2691	577.4 ± 1.1
333.22 K, 50 kPa, Gas, x1 = 0.2227	0.8 ± 0.1
333.22 K, 260 kPa, Gas, x1 = 0.2227	4.1 ± 0.1
333.22 K, 470 kPa, Gas, x1 = 0.2227	7.5 ± 0.1
333.22 K, 671 kPa, Gas, x1 = 0.2227	10.9 ± 0.1
333.22 K, 838 kPa, Gas, x1 = 0.2227	13.9 ± 0.1
333.22 K, 995 kPa, Gas, x1 = 0.2227	16.9 ± 0.1
333.22 K, 1186 kPa, Gas, x1 = 0.2227	20.5 ± 0.1
333.22 K, 1363 kPa, Gas, x1 = 0.2227	24.1 ± 0.1
333.22 K, 1512 kPa, Gas, x1 = 0.2227	27.2 ± 0.1
333.22 K, 1663 kPa, Gas, x1 = 0.2227	30.6 ± 0.1
333.22 K, 1805 kPa, Gas, x1 = 0.2227	33.9 ± 0.1
333.22 K, 1931 kPa, Gas, x1 = 0.2227	37 ± 0.1
